pIC50: −log10 of the molar value. Starred links: 1 amine or outer side, 2 acyl side, 3 side chain; linkers in the order of their positions; H or OH if unused. Positions of bridges follow the written chain, without caps; N, C: chain ends. Non-standard residues stand in square brackets, D forms with d. Residues, ends and D or L forms follow the SMILES beside them. Phe(3-Me) = Cc1cccc(C[C@H](N)C(=O)O)c1; 2Nal = N[C@@H](Cc1ccc2ccccc2c1)C(=O)O; βAsp = O=C(O)[C@H](CC(=O)[*:2])N[*:1]; Cit = NC(=O)NCCC[C@H](N)C(=O)O; Ahp(2) = CCCCC[C@H](N)C(=O)O; NMeNle = CCCC[C@H](NC)C(=O)O; Tle = CC(C)(C)[C@H](N)C(=O)O; NHexGly = CCCCCCNCC(=O)O; Nle = CCCC[C@H](N)C(=O)O; Aun = NCCCCCCCCCCC(=O)O; AEEA = NCCOCCOCC(=O)O

In this assay the target is T1, mouse VISTA (mVISTA) (Mus musculus, UniProt Q9D659).
T1 construct: expressed in transfected cells; host or cells: Human embryonic kidney 293T cells
T1 sequence (Q9D659 33-308): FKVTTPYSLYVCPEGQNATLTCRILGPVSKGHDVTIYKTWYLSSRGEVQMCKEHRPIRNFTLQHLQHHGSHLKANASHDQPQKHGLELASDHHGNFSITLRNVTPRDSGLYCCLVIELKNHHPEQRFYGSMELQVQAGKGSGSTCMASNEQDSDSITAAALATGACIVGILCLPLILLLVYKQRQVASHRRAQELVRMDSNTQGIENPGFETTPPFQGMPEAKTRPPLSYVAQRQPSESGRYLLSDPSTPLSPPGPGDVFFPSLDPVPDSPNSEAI
Put plainly: Cell-Based Binding High-Content Assay For mVISTA (HC CBA mVISTA). The following applies: cell-based binding high-content assay, mVISTA; read-out: HC CBA miPr ISTA IC50. The gist of the method:
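Competition of compound with a biotinylated peptide (final 2 nM, 30 min at RT) for binding to mVISTA on 293T cells, run under no-wash or wash (1 h compound preincubation then removal) formats. Readout by Alexa 647–streptavidin imaging on a high-content platform; four-parameter logistic fit gave IC50.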
One may read the pIC50 as the IC50 on a negative log10 scale, so that one unit is a factor of ten. With `CCCCCCN1CC(=O)N[C@@H](Cc2ccc(O)cc2)C(=O)N[C@@H](CCCC)C(=O)N[C@@H](CC(=O)O)C(=O)N[C@@H](CCCNC(=N)N)C(=O)N[C@@H](CC(C)C)C(=O)N[C@@H](CCCCC)C(=O)N2CCC[C@H]2C(=O)N[C@@H](C(C)C)C(=O)N[C@@H](CC(N)=O)C(=O)N[C@H](C(=O)NCC(=O)NCCOCCOCC(=O)N[C@@H](CC(=O)O)C(=O)NCCOCCOCC(=O)NCCCCCCCCCCC(=O)O)CSCC(=O)N[C@@H](Cc2ccccc2)C(=O)N[C@@H](Cc2ccc(O)cc2)C(=O)N[C@@H](CC(=O)O)C1=O` [compound 2005] ({CH2CO}-FYD[NHexGly]Y[Nle]DRL[Ahp(2)]PVNCG[AEEA]D[AEEA][Aun]-OH; thioether N-14), the pIC50 is 7.98. For the compound `CCCCCCN1CC(=O)N[C@@H](Cc2ccc(O)cc2)C(=O)N[C@@H](CCCC)C(=O)N[C@@H](CC(N)=O)C(=O)N[C@@H](CCCNC(=N)N)C(=O)N[C@@H](CC(C)C)C(=O)N[C@@H](CCCCC)C(=O)N2CCC[C@H]2C(=O)N[C@@H](C(C)C)C(=O)N[C@@H](CO)C(=O)N[C@H](C(=O)NCC(=O)NCCOCCOCC(=O)N[C@@H](CC(=O)O)C(=O)NCCOCCOCC(=O)NCCCCCCCCCCC(=O)O)CSCC(=O)N[C@@H](Cc2ccc3ccccc3c2)C(=O)N[C@@H](Cc2ccc(O)cc2)C(=O)N[C@@H](CC(=O)O)C1=O` [compound 2007] ({CH2CO}-[2Nal]YD[NHexGly]Y[Nle]NRL[Ahp(2)]PVSCG[AEEA]D[AEEA][Aun]-OH; thioether N-14), the pIC50 was 7.71. In the case of `CCCCCCN1CC(=O)N[C@@H](Cc2ccc(O)cc2)C(=O)N[C@@H](CCCC)C(=O)N[C@@H](CC(N)=O)C(=O)N[C@@H](CCCNC(=N)N)C(=O)N[C@@H](CC(C)C)C(=O)N[C@@H](CCCCC)C(=O)N2CCC[C@H]2C(=O)N[C@@H](C(C)C)C(=O)N[C@@H](CC(=O)O)C(=O)N[C@H](C(=O)NCC(=O)NCCOCCOCC(=O)N[C@@H](CC(=O)O)C(=O)NCCOCCOCC(=O)NCCCCCCCCCCC(=O)O)CSCC(=O)N[C@@H](Cc2cccc(C)c2)C(=O)N[C@@H](Cc2c[nH]c3ccccc23)C(=O)N[C@@H](CC(=O)O)C1=O` [compound 2008] ({CH2CO}-[Phe(3-Me)]WD[NHexGly]Y[Nle]NRL[Ahp(2)]PVDCG[AEEA]D[AEEA][Aun]-OH; thioether N-14), the pIC50 was 7.79. Then `CCCCCCN1CC(=O)N[C@@H](Cc2ccc(O)cc2)C(=O)N[C@@H](CC(C)C)C(=O)N[C@@H](CC(N)=O)C(=O)N[C@@H](CCCNC(=N)N)C(=O)N[C@@H](CC(C)C)C(=O)N[C@@H](CCCCC)C(=O)N2CCC[C@H]2C(=O)N[C@@H](C(C)C)C(=O)N[C@@H](C(C)C)C(=O)N[C@H](C(=O)NCC(=O)NCCOCCOCC(=O)N[C@@H](CC(=O)O)C(=O)NCCOCCOCC(=O)NCCCCCCCCCCC(=O)O)CSCC(=O)N[C@@H](Cc2ccccc2)C(=O)N[C@@H](Cc2cccc(C)c2)C(=O)N[C@@H](CC(=O)O)C1=O` [compound 2009] ({CH2CO}-F[Phe(3-Me)]D[NHexGly]YLNRL[Ahp(2)]PVVCG[AEEA]D[AEEA][Aun]-OH; thioether N-14), with 7.41. To `CCCCCCN1CC(=O)N[C@@H](Cc2ccc(O)cc2)C(=O)N[C@@H](CCCC)C(=O)N[C@@H](CC(N)=O)C(=O)N[C@@H](CCCNC(=N)N)C(=O)N(C)[C@@H](CCCC)C(=O)N[C@@H](CCCCC)C(=O)N2CCC[C@H]2C(=O)N[C@@H](C(C)C)C(=O)N[C@@H](CC(=O)O)C(=O)N[C@H](C(=O)NCC(=O)NCCOCCOCC(=O)N[C@@H](CC(=O)O)C(=O)NCCOCCOCC(=O)NCCCCCCCCCCC(=O)O)CSCC(=O)N[C@@H](Cc2ccccc2)C(=O)N[C@@H](Cc2c[nH]c3ccccc23)C(=O)N[C@@H](CC(=O)O)C1=O` [compound 2010] ({CH2CO}-FWD[NHexGly]Y[Nle]NR[NMeNle][Ahp(2)]PVDCG[AEEA]D[AEEA][Aun]-OH; thioether N-14) belongs 7.80. Then `CCCCCCN1CC(=O)N[C@@H](Cc2ccc(O)cc2)C(=O)N[C@@H](CC(C)C)C(=O)N[C@@H](CC(N)=O)C(=O)N[C@@H](CCCNC(=N)N)C(=O)N[C@@H](CC(C)C)C(=O)N[C@@H](CCCCC)C(=O)N2CCC[C@H]2C(=O)N[C@@H](C(C)C)C(=O)N[C@@H](C(C)C)C(=O)N[C@H](C(=O)NCC(=O)NCCOCCOCC(=O)N[C@@H](CC(=O)O)C(=O)NCCOCCOCC(=O)NCCCCCCCCCCC(=O)O)CSCC(=O)N[C@@H](Cc2ccccc2)C(=O)N[C@@H](Cc2ccc(O)cc2)C(=O)N[C@@H](CC(=O)O)C1=O` [compound 2012] ({CH2CO}-FYD[NHexGly]YLNRL[Ahp(2)]PVVCG[AEEA]D[AEEA][Aun]-OH; thioether N-14), with 7.29; and `CCCCCCN1CC(=O)N[C@@H](Cc2ccc(O)cc2)C(=O)N[C@@H](CCCCC)C(=O)NCC(=O)N[C@@H](CCCNC(=N)N)C(=O)N[C@@H](CC(C)C)C(=O)N[C@@H](CCCCC)C(=O)N2CCC[C@H]2C(=O)N[C@@H](C(C)C)C(=O)N[C@@H](CO)C(=O)N[C@H](C(=O)NCC(=O)NCCOCCOCC(=O)N[C@@H](CC(=O)O)C(=O)NCCOCCOCC(=O)NCCCCCCCCCCC(=O)O)CSCC(=O)N[C@@H](Cc2ccccc2)C(=O)N[C@@H](Cc2ccc(O)cc2)C(=O)N[C@@H](CC(=O)O)C1=O` [compound 2013] ({CH2CO}-FYD[NHexGly]Y[Ahp(2)]GRL[Ahp(2)]PVSCG[AEEA]D[AEEA][Aun]-OH; thioether N-14), with 7.59; and `CCCCCCN1CC(=O)N[C@@H](Cc2ccc(O)cc2)C(=O)N[C@@H](CCCC)C(=O)NCC(=O)N[C@@H](CCCNC(=N)N)C(=O)N[C@@H](CC(C)C)C(=O)N[C@@H](CCCCC)C(=O)N2CCC[C@H]2C(=O)N[C@@H](C(C)C)C(=O)N[C@@H](CC(=O)O)C(=O)N[C@H](C(=O)NCC(=O)NCCOCCOCC(=O)N[C@@H](CC(=O)O)C(=O)NCCOCCOCC(=O)NCCCCCCCCCCC(=O)O)CSCC(=O)N[C@@H](Cc2cccc(C)c2)C(=O)N[C@@H](Cc2ccc(O)cc2)C(=O)N[C@@H](CC(=O)O)C1=O` [compound 2014] ({CH2CO}-[Phe(3-Me)]YD[NHexGly]Y[Nle]GRL[Ahp(2)]PVDCG[AEEA]D[AEEA][Aun]-OH; thioether N-14), with 7.79. Consider `CCCCCCN1CC(=O)N[C@@H](Cc2ccc(O)cc2)C(=O)N[C@@H](CCCC)C(=O)N[C@@H](CC(N)=O)C(=O)N[C@@H](CCCNC(N)=O)C(=O)N[C@@H](CC(C)C)C(=O)N[C@@H](CCCCC)C(=O)N2CCC[C@H]2C(=O)N[C@@H](C(C)C)C(=O)N[C@@H](CO)C(=O)N[C@H](C(=O)NCC(=O)NCCOCCOCC(=O)N[C@@H](CC(=O)O)C(=O)NCCOCCOCC(=O)NCCCCCCCCCCC(=O)O)CSCC(=O)N[C@@H](Cc2ccc3ccccc3c2)C(=O)N[C@@H](Cc2ccc(O)cc2)C(=O)N[C@@H](CC(=O)O)C1=O` [compound 2016] ({CH2CO}-[2Nal]YD[NHexGly]Y[Nle]N[Cit]L[Ahp(2)]PVSCG[AEEA]D[AEEA][Aun]-OH; thioether N-14), for which the pIC50 is 7.72.

`CCCCCCN1CC(=O)N[C@@H](Cc2ccc(O)cc2)C(=O)N[C@@H](CCCC)C(=O)N[C@@H](CC(=O)O)C(=O)N[C@@H](CCCNC(N)=O)C(=O)N[C@@H](CC(C)C)C(=O)N[C@@H](CCCCC)C(=O)N2CCC[C@H]2C(=O)N[C@@H](C(C)C)C(=O)N[C@@H](CC(N)=O)C(=O)N[C@H](C(=O)NCC(=O)NCCOCCOCC(=O)N[C@@H](CC(=O)O)C(=O)NCCOCCOCC(=O)NCCCCCCCCCCC(=O)O)CSCC(=O)N[C@@H](Cc2ccccc2)C(=O)N[C@@H](Cc2ccc(O)cc2)C(=O)N[C@@H](CC(=O)O)C1=O` [compound 2018] ({CH2CO}-FYD[NHexGly]Y[Nle]D[Cit]L[Ahp(2)]PVNCG[AEEA]D[AEEA][Aun]-OH; thioether N-14): the pIC50 was 7.69. With `CCCCCCN1CC(=O)N[C@@H](Cc2ccc(O)cc2)C(=O)N[C@@H](CCCC)C(=O)NCC(=O)N[C@@H](CCCNC(N)=O)C(=O)N[C@@H](CC(C)C)C(=O)N[C@@H](CCCCC)C(=O)N2CCC[C@H]2C(=O)N[C@@H](C(C)C)C(=O)N[C@@H](CC(=O)O)C(=O)N[C@H](C(=O)NCC(=O)NCCOCCOCC(=O)N[C@@H](CC(=O)O)C(=O)NCCOCCOCC(=O)NCCCCCCCCCCC(=O)O)CSCC(=O)N[C@@H](Cc2cccc(C)c2)C(=O)N[C@@H](Cc2ccc(O)cc2)C(=O)N[C@@H](CC(=O)O)C1=O` [compound 2019] ({CH2CO}-[Phe(3-Me)]YD[NHexGly]Y[Nle]G[Cit]L[Ahp(2)]PVDCG[AEEA]D[AEEA][Aun]-OH; thioether N-14), the pIC50 is 7.84.

In the case of `CCCCCCN1CC(=O)N[C@@H](Cc2ccc(O)cc2)C(=O)N[C@@H](CCCC)C(=O)N[C@@H](CC(N)=O)C(=O)N[C@@H](CCCNC(=N)N)C(=O)N(C)[C@@H](CCCC)C(=O)N[C@@H](CCCCC)C(=O)N2CCC[C@H]2C(=O)N[C@@H](C(C)(C)C)C(=O)N[C@@H](CO)C(=O)N[C@H](C(=O)N[C@@H](CC(=O)NCCOCCOCC(=O)N[C@@H](CC(=O)O)C(=O)NCCOCCOCC(=O)NCCCCCCCCCCC(=O)O)C(=O)O)CSCC(=O)N[C@@H](Cc2ccccc2)C(=O)N[C@@H](Cc2ccc(O)cc2)C(=O)N[C@@H](CC(=O)O)C1=O` [compound 2021] ({CH2CO}-FYD[NHexGly]Y[Nle]NR[NMeNle][Ahp(2)]P[Tle]SC[βAsp][AEEA]D[AEEA][Aun]-OH; thioether N-14), the pIC50 was 7.71. In the case of `CCCCCCN1CC(=O)N[C@@H](Cc2ccc(O)cc2)C(=O)N[C@@H](CCCC)C(=O)N[C@@H](CC(N)=O)C(=O)N[C@@H](CCCNC(=N)N)C(=O)N(C)[C@@H](CCCC)C(=O)N[C@@H](CCCCC)C(=O)N2CCC[C@H]2C(=O)N[C@@H](C(C)(C)C)C(=O)N[C@@H](CO)C(=O)N[C@H](C(=O)N[C@@H](CC(=O)NCCOCCOCC(=O)N[C@@H](CC(=O)O)C(=O)NCCOCCOCC(=O)NCCCCCCCCCCC(=O)O)C(=O)O)CSCC(=O)N[C@@H](Cc2ccccc2)C(=O)N[C@@H](Cc2c[nH]c3ccccc23)C(=O)N[C@@H](CC(=O)O)C1=O` [compound 2022] ({CH2CO}-FWD[NHexGly]Y[Nle]NR[NMeNle][Ahp(2)]P[Tle]SC[βAsp][AEEA]D[AEEA][Aun]-OH; thioether N-14), the negative logarithm of the IC50 (pIC50) is 7.64.

The values are drawn from patent US20240218022A1, “ANTI-VISTA MACROCYCLIC PEPTIDES AND COMPOSITIONS” (BRISTOL-MYERS SQUIBB COMPANY, priority 2022, published 2024).
